Values quoted from earlier work as cited in patent US20080299102A1, “Novel BACE proteins, nucleic acid molecules therefor, novel crystal structure of novel BACE proteins, and methods for making and using” (priority 2001, published 2008).
Where a SMILES comes first, the peptide text is derived from it. [ ]: non-standard residue; d: D form. The star is where a group is joined. Sta = CC(C)C[C@H](N)[C@@H](O)CC(=O)O; Isovaleryl = CC(C)CC(=O)*

Molecular target: BACE (Homo sapiens, UniProt P56817)
Settings: general statement in the description, no test data given

Chain of BACE (P56817 46-501): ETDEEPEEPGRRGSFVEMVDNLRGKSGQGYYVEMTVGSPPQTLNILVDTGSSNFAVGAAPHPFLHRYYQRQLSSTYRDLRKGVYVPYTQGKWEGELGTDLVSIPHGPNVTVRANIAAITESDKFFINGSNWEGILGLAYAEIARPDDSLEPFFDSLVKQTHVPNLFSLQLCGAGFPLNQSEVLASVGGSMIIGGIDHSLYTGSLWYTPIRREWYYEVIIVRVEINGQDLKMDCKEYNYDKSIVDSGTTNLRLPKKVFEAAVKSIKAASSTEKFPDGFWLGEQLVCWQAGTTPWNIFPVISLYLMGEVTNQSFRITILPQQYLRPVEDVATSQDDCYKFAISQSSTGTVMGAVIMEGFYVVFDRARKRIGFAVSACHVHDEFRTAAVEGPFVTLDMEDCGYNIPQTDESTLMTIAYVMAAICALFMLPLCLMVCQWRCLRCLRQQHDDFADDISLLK

CC(C)CC(=O)N[C@H](C(=O)N[C@H](C(=O)N[C@@H](CC(C)C)[C@@H](O)CC(=O)N[C@@H](C)C(=O)N[C@@H](CC(C)C)[C@@H](O)CC(=O)O)C(C)C)C(C)C [pepstatin] (Isovaleryl-VV[Sta]A[Sta]-OH)
inhibition of BACE: not inhibited
